Data on seven molecules can be found in article PMC6028563, “Probing Substituents in the 1- and 3-Position: Tetrahydropyrazino-Annelated Water-Soluble Xanthine Derivatives as Multi-Target Drugs With Potent Adenosine Receptor Antagonistic Activity” (Frontiers in Chemistry, 2018).

Each structure is given as a SMILES string. Like-named read-outs stand apart in the source and are kept apart here.

One data set addresses T1, recombinant human MAO-B (Homo sapiens, UniProt P27338).
T1 construct: purchased Sigma-Aldrich M7441; host or cells: baculovirus-infected insect cells
T1 sequence (P27338 1-520): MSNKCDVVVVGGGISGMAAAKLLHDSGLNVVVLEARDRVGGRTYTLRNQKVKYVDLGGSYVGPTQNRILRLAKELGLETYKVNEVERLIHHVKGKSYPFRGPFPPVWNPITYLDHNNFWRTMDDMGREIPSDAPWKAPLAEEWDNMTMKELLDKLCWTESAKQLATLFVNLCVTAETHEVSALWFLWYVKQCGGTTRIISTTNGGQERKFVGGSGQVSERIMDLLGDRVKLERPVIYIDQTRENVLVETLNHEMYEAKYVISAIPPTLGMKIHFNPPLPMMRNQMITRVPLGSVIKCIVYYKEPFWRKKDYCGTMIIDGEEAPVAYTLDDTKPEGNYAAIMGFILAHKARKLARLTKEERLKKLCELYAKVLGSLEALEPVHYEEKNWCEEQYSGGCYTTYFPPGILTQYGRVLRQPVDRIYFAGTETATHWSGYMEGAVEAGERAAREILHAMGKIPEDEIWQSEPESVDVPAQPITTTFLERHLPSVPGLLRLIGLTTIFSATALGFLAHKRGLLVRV
Nature of the data set: Monoamine oxidase assay (Amplex Red), MAO-B. It counts as biochemical. Particulars: for inhibition at 10 µM: at 10,000 nM (10 μM), read-out: % inhibition at indicated concentration, Human MAO-B; for IC50: n = 3, read-out: IC50 ± SEM, Human MAO-B. The procedure, abridged:
(§1)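 Recombinant human MAO-A and MAO-B, expressed in baculovirus-infected insect cells, were assayed by Amplex Red fluorometric detection. Rat MAO-B inhibition used mitochondria-enriched fractions from male Sprague Dawley rat liver.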

A short description of data set [1]: Thermodynamic solubility measurements. It counts as physicochemical. Particulars: thermodynamic from solid. An excerpt: This is expected to facilitate dissolution in the stomach. Depending on the substitution pattern they may also be well soluble at higher pH values (Brunschweiger et al., [2014]). In the present study we measured thermodynamic solubility of only very few compounds exemplarily (14a-e, 14g, 15f,g) and confirmed their high solubility at pH 1 (see Table S1 in Supplementary Material). Most of these compounds were still soluble at pH 7.4. The best soluble derivative was the 3-ethyl-1-methyl-8-m-fluorobenzyl derivative 14g with solubilities of >1.5 g/L (4.2 mM) at pH 1, 50 mg/L (0.14 mM) at pH 4, and 40 mg/L ([…]) at pH 7.4.
Table S1. Solubility of selected compounds at three different pH values (in mg/mL).a
Compound pH 1 pH 4 pH 7.4
adetermined by thermodynamic solubility measurements.

A further data set concerns the target T2, human A2A AR (Homo sapiens, UniProt P29274).
T2 construct: expressed in transfected cells; host or cells: CHO cells
Description: Radioligand binding assay at human A2A AR vs. [^3H]MSX-2. Particulars: CHO cell membranes, n = 3, read-out: Ki ± SEM, A2A vs. [^3H]MSX-2. The procedure, abridged:
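Rat A1 binding used brain cortex membranes with [^3H]CCPA; rat A2A used striatal membranes with [^3H]MSX-2. Human A2B (and other human subtypes) assayed on membranes of CHO cells recombinantly expressing the receptor, A2B versus [^3H]PSB-603.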

The target of another data set is T3, recombinant human MAO-A (Homo sapiens, UniProt P21397).
T3 construct: purchased Sigma-Aldrich M7316; host or cells: baculovirus-infected insect cells
T3 sequence (P21397 1-527): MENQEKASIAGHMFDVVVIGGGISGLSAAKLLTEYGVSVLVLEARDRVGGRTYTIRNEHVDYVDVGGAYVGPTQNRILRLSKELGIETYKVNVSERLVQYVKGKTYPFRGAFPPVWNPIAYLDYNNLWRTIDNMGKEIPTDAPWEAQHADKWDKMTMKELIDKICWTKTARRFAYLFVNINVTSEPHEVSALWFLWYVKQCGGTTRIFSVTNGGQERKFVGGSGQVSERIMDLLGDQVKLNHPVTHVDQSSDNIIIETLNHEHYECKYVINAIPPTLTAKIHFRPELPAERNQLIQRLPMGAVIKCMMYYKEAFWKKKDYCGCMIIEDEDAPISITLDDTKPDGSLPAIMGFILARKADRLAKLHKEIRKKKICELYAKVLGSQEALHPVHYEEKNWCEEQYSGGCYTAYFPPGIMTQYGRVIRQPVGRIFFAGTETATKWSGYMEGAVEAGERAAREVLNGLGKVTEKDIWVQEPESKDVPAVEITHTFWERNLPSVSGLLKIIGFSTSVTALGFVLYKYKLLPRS
Nature of the data set: Monoamine oxidase assay (Amplex Red), MAO-A. It counts as biochemical. Particulars: for inhibition at 10 µM: at 10,000 nM, read-out: % inhibition at indicated concentration, Human MAO-A; for IC50: n = 3, read-out: IC50 ± SEM, Human MAO-A. A digest of the protocol: as §1

Setting [2] is: aqueous buffer, pH 4, thermodynamic solubility, read-out: Solubility, pH 4.
The mark [3] stands for this setting: aqueous buffer, pH 7.4, thermodynamic solubility, read-out: Solubility, pH 7.4.
The mark [4] stands for this setting: simulated gastric fluid, pH 1, thermodynamic solubility, read-out: Solubility, pH 1.

T2 sequence (P29274 whole entry): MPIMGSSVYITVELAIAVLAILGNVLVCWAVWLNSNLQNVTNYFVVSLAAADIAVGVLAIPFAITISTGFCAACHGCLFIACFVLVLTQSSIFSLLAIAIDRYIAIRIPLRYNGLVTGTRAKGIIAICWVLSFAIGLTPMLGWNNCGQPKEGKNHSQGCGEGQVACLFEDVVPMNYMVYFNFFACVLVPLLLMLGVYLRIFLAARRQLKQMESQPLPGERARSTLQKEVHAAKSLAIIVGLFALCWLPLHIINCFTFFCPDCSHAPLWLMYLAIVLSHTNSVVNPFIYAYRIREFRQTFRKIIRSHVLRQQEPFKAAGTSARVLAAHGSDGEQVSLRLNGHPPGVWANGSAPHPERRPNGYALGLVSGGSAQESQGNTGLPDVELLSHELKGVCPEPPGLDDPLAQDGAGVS

With `CCn1c(=O)c2c(nc3n2CCN(Cc2cccc(Br)c2)C3)n(C)c1=O` [Compound 14b, 8-(3-bromobenzyl)-3-ethyl-1-methyl-6,7,8,9-tetrahydropyrazino[2,1-f]purine-2,4(1H,3H)-dione], at recombinant human MAO-B, the inhibition at 10 µM amounted to 34%. Moreover, at recombinant human MAO-B, the IC50 is above 10 µM. For the same molecule, the figures for the solubility in data set [1] (setting [2]), in data set [1] (setting [3]) and in data set [1] (setting [4]) were 1 µg/mL, 0.9 µg/mL and 100 µg/mL, respectively.

In the case of `CCn1c(=O)c2c(nc3n2CCN(Cc2cccc(C(F)(F)F)c2)C3)n(CC)c1=O` [Compound 15g, 1,3-diethyl-8-(3-(trifluoromethyl)benzyl)-6,7,8,9-tetrahydropyrazino[2,1-f]purine-2,4(1H,3H)-dione], the inhibition at 10 µM on recombinant human MAO-B came to 10%. The half-inhibitory concentration (IC50) on recombinant human MAO-B was above 10 µM. Also, the solubility in data set [1] (setting [2]) is 2 µg/mL; in data set [1] (setting [3]), 2 µg/mL; in data set [1] (setting [4]) it was 600 µg/mL. In addition, the Ki at human A2A AR was 0.277 ± 0.059 µM.

As for `CCn1c(=O)c2c(nc3n2CCN(Cc2cccc(C(F)(F)F)c2)C3)n(C)c1=O` [Compound 14e, 3-ethyl-1-methyl-8-(3-(trifluoromethyl)benzyl)-6,7,8,9-tetrahydropyrazino[2,1-f]purine-2,4(1H,3H)-dione], the inhibition at 10 µM on recombinant human MAO-B was above 50%; at recombinant human MAO-A, 12%. For the same molecule, the IC50 on recombinant human MAO-B was below 10 µM; at recombinant human MAO-A, above 10 µM. Moreover, the figures for the solubility in data set [1] (setting [2]), in data set [1] (setting [3]) and in data set [1] (setting [4]) were 2 µg/mL, 2 µg/mL and 400 µg/mL, respectively. The Ki at human A2A AR amounted to 1.78 µM.

Turning to `CCn1c(=O)c2c(nc3n2CCN(Cc2ccc(Br)cc2)C3)n(C)c1=O` [Compound 14c, 8-(4-bromobenzyl)-3-ethyl-1-methyl-6,7,8,9-tetrahydropyrazino[2,1-f]purine-2,4(1H,3H)-dione], the IC50 at recombinant human MAO-B was 1.63 µM; on recombinant human MAO-A it was above 10 µM. Also, at recombinant human MAO-A, the inhibition at 10 µM was 2%. The solubility in data set [1] (setting [2]) is 6 µg/mL; in data set [1] (setting [3]) it was 3 µg/mL; in data set [1] (setting [4]), 1300 µg/mL.

With `CCn1c(=O)c2c(nc3n2CCN(Cc2ccccc2C(F)(F)F)C3)n(C)c1=O` [Compound 14d, 3-ethyl-1-methyl-8-(2-(trifluoromethyl)benzyl)-6,7,8,9-tetrahydropyrazino[2,1-f]purine-2,4(1H,3H)-dione], the inhibition at 10 µM at recombinant human MAO-B was 49%; at recombinant human MAO-A, 5%. The IC50 was at least 10 µM at recombinant human MAO-B and above 10 µM at recombinant human MAO-A. Also, the solubility in data set [1] (setting [2]) is 1 µg/mL; in data set [1] (setting [3]), below 0.5 µg/mL; in data set [1] (setting [4]) it was 200 µg/mL.

With `CCn1c(=O)c2c(nc3n2CCN(Cc2cccc(F)c2)C3)n(C)c1=O` [Compound 14g, 3-ethyl-8-(3-fluorobenzyl)-1-methyl-6,7,8,9-tetrahydropyrazino[2,1-f]purine-2,4(1H,3H)-dione], the inhibition at 10 µM on recombinant human MAO-B was determined as 48%. The IC50 at recombinant human MAO-B was at least 10 µM. The solubility in data set [1] (aqueous solution, aqueous buffer, pH 4, molar value in brackets, read-out: solubility at pH 4) is 140 µM; in data set [1] (aqueous solution, aqueous buffer, pH 4, read-out: solubility at pH 4), 50 µg/mL; in data set [1] (aqueous solution, aqueous buffer, pH 7.4, molar value in brackets, read-out: solubility at pH 7.4), 84 µM; in data set [1] (aqueous solution, aqueous buffer, pH 7.4, read-out: solubility at pH 7.4) it was 40 µg/mL; in data set [1] (aqueous solution, simulated gastric fluid, pH 1, molar value in brackets, read-out: solubility at pH 1), above 4200 µM; in data set [1] (aqueous solution, simulated gastric fluid, pH 1, read-out: solubility at pH 1) it was above 1500 µg/mL.

`CCn1c(=O)c2c(nc3n2CCN(Cc2ccccc2Br)C3)n(C)c1=O` [Compound 14a, 8-(2-bromobenzyl)-3-ethyl-1-methyl-6,7,8,9-tetrahydropyrazino[2,1-f]purine-2,4(1H,3H)-dione]: the inhibition at 10 µM on recombinant human MAO-B was determined as 37%. Besides, the IC50 at recombinant human MAO-B is above 10 µM. In addition, the solubility was 0.9 µg/mL in data set [1] (setting [2]), 0.8 µg/mL in data set [1] (setting [3]) and 200 µg/mL in data set [1] (setting [4]). Moreover, at human A2A AR, the Ki was 0.497 ± 0.062 µM.

Usually IC50 stands for the concentration that gives 50% inhibition. One may read the solubility as how much of the substance goes into solution per volume. For orientation: Ki means the equilibrium dissociation constant of an inhibitor or competing ligand from its target.
